From patent US20180185408A1, “ANTIFUNGAL NYLON-3 POLYMERS AND COMBINATION THERAPY USING THEM TO TREAT FUNGAL INFECTIONS” (priority 2016, published 2018) come the findings set out here.

The structures appear in SMILES notation. In brackets after ≈: the same amount, converted by molar mass. Several values for one entry are separate records, joined by “and”; a condition that tells them apart may be missing. Identical values can stand only once. Some results are limits rather than exact numbers.

Series [1] has as its system Aspergillus fumigatus. The series can be described thus: microbe, parasite or virus in culture.
The subject of series [2] is Trichophyton rubrum. Description: MIC100 against dermatophytes (modified CLSI M38-A). Type of series: cell-based. The note with it: ATCC28188; Trichophyton rubrum isolate ATCC 28188. On the procedure:
(§1) The final group of fungi tested for sensitivity to nylon-3 polymers were dermatophytes. In contrast to the other filamentous fungi tested, three of these isolates were evaluated following a modified version of the CLSI M38-A methodology (using hyphal fragments in liquid culture, because of difficulties in obtaining conidia). […] Mixed efficacy of the nylon-3 polymers was observed across the four species of dermatophytes tested. […] The activity against P. destructans, the causative agent of White Nose syndrome in bats, and just one of many emerging fungal pathogens threatening wildlife is encouraging because there are few options at present for preventing the spread of this devastating pathogen. The facility with which nylon-3 polymers can be modified could provide opportunities for the development of topical agents with high specificity for particular fungi.

The subject of series [3] is Microsporum canis. Description: MIC100 against dermatophytes (modified CLSI M38-A). The format is cell-based. The note with it: Microsporum canis isolate UW10. On the procedure: as §1
Series [4] deals with Trichophyton tonsurans. The series can be described thus: MIC100 against dermatophytes (modified CLSI M38-A). Type of series: cell-based. The note with it: CBS112818; Trichophyton tonsurans isolate CBS 112818. The protocol:
as §1

Series [5] has as its system Saccharomyces cerevisiae. Description: MIC100 against yeast (CLSI M27-A3). Type of series: cell-based. The conditions noted are these: Saccharomyces cerevisiae W303.
Series [6] relates to human red blood cells (hRBCs). Description: Hemolysis assay. The note with it: 1 hour.
Series [7] relates to Cryptococcus neoformans. The series can be described thus: Checkerboard microdilution synergy (FIC). The note with it: for FIC / MIC alone / MIC combo: AMB and MM:TM. (Broth dilution looks for growth in wells or tubes with falling amounts of substance.)
The mark [8] stands for this setting: H99, […]10^5 cells/mL, 30°C, OD600 48 h, Avg.
Where [9] appears, read: H99, […]10^5 cells/mL, 30°C, OD600 48 h, trial 1.
Where [10] appears, read: H99, […]10^5 cells/mL, 30°C, OD600 48 h, trial 2.
[11] abbreviates: MM:TM (40:60) with Amp B, isolate H99 (Amp B Sensitive), […]10^5 cells/mL, 30° C.
The mark [12] stands for this setting: NM20 with Amp B, isolate H99, […] 10^5 cells/mL.
Setting [13] is: Table 41, MM:TM with Amp B, isolate H99, […] 10^5 cells/mL.

In the case of `CCC(C)n1ncn(-c2ccc(N3CCN(c4ccc(OCC5COC(Cn6cncn6)(c6ccc(Cl)cc6Cl)O5)cc4)CC3)cc2)c1=O` (centres unmarked) [Itraconazole, itraconazole], the MIC in series [1] (48 h, A. fumigatus AF293, visually, 1 × 10^5 cells/mL, 35° C.) is 1 µg/mL and 1.4 µM; in series [1] (48 h, A. fumigatus CEA10, visually, 1 × 10^5 cells/mL, 35° C.), > 1 µg/mL and > 1.4 µM; in series [1] (48 h, A. fumigatus F11628, visually, 1 × 10^5 cells/mL, 35° C.), 48 µg/mL and 68.5 µM; in series [1] (48 h, A. fumigatus F16216, visually, 1 × 10^5 cells/mL, 35° C.), 32 µg/mL and 45.3 µM; in series [1] (A. fumigatus AF293), 1.4 µM (≈ 0.988 µg/mL); in series [1] (A. fumigatus CEA10) it was > 1.4 µM. In addition, the MIC in series [1] (A. fumigatus F11628) was 68 µM (≈ 48 µg/mL); in series [1] (A. fumigatus F16216), 45.3 µM (≈ 32 µg/mL); in series [1] (azole resistant strain F11628), > 45 µM; in series [1] (strain F16216) it was 45.3 µM (≈ 32 µg/mL); in series [2] it was 1 µg/mL (≈ 1.42 µM); in series [3] it was 1 µg/mL (≈ 1.42 µM). This compound yielded an MIC in series [4] of 0.13 µg/mL (≈ 0.184 µM).

Turning to `OC(Cn1cncn1)(Cn1cncn1)c1ccc(F)cc1F` [FLC, fluconazole], the MIC50 (as a rule, the lowest concentration that inhibits either 50% of growth or 50% of the strains tested, depending on the study) in series [5] is < 1 µg/mL.

Consider `C[C@@H]1[C@H](O)[C@@H](C)/C=C/C=C/C=C/C=C/C=C/C=C/C=C/[C@H](O[C@@H]2O[C@H](C)[C@@H](O)[C@H](N)[C@@H]2O)C[C@@H]2O[C@](O)(C[C@@H](O)C[C@@H](O)[C@H](O)CC[C@@H](O)C[C@@H](O)CC(=O)O[C@H]1C)C[C@H](O)[C@H]2C(=O)O` [AMB, amphotericin B], for which, in series [6], the “concentration causing 10% hemolysis (HC10)” value was 27 µM. Moreover, the “concentration causing 50% lysis of hRBCs (HC50)” value in series [6] turned out to be 54 µM. For the same compound, the “decrease of the MIC of AMB in combination with MM:TM” value in series [7] (H99) was > 10 fold. In series [7] (H99, AMB and MM:TM in combination, […]10^5 cells/mL, 30°C, OD600 48 h), the “MIC Combined” value came to 0.16 µM. Besides, the FIC in series [7] (H99, Avg.) is 0.05; in series [7] (H99, trial 1), 0.06; in series [7] (H99, trial 2), 0.03. Besides, the MIC alone in series [7] (setting [8]) stood at 3.1 µg/mL; in series [7] (setting [9]), 3.1 µg/mL; in series [7] (setting [10]), 3.1 µg/mL; in series [7] (H99, single agent, […]10^5 cells/mL, 30°C, OD600 48 h), 3.4 µM. Besides, the MIC combo is 0.15 µg/mL in series [7] (setting [8]), 0.2 µg/mL in series [7] (setting [9]) and 0.1 µg/mL in series [7] (setting [10]). Also, the “MIC AMB alone” value in series [7] (H99, AMB as single agent, OD600, 48 h, 30° C.) worked out at 3.4 µM; in series [7] (setting [12]) it was 3.1 µg/mL. In addition, the “MIC AMB combination” value in series [7] (H99, AMB in combination with MM:TM, OD600, 48 h, 30° C.) was 0.1 µM and 0.16 µM and 0.2 µM. Also, in series [7] (H99, AMB with MM:TM), the FICAMB was 0.03 and 0.05 and 0.06. The “FICAmp B” value in series [7] (setting [11]) turned out to be 0.09. Moreover, the “MIC Amp B alone” value in series [7] (setting [11]) and in series [7] (setting [13]) was 1.6 µg/mL in each case. Further, the “MIC Amp B in combination” value in series [7] (setting [11]) and in series [7] (setting [13]) was 0.15 µg/mL in each case. In series [7] (setting [12]), the “MIC AMB in combination” value was 0.1 µg/mL.
